Laboratory results published in patent US8658638B2, “Mineralocorticoid receptor antagonist and methods of use” (priority 2009, dated 2014).

Biological target: T1, human glucocorticoid receptor (GR) (Homo sapiens, UniProt P04150)
T1 construct: expressed in transfected cells; host or cells: HEK293
T1 sequence (P04150 1-777): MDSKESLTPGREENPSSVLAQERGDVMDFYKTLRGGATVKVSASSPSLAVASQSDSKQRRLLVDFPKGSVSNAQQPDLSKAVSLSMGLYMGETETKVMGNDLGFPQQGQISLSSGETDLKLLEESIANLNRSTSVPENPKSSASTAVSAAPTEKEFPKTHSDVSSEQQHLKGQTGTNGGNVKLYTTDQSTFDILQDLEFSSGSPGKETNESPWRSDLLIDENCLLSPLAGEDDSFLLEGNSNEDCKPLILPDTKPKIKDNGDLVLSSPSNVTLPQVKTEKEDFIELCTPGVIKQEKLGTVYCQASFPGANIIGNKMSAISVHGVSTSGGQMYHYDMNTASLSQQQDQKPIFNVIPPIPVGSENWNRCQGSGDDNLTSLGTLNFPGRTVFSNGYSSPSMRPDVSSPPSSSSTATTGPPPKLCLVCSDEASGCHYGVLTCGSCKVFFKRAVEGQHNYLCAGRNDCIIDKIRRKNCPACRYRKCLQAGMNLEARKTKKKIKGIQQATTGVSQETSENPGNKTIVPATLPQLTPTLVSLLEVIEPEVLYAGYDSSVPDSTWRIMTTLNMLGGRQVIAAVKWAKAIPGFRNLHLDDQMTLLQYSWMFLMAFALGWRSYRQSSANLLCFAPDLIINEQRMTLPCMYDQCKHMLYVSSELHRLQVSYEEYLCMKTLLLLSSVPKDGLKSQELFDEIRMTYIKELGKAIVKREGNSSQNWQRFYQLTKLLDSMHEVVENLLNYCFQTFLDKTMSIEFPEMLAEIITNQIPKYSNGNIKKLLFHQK
Assay: Nuclear hormone receptor panel screen (luciferase reporter, HEK293), GR
Assay type: cell-based
Text: Aldosterone exerts it physiological effects through interaction with the mineralocorticoid receptor. Following cytoplasmic binding of aldosterone to MR, the ligand receptor complex translocates to the cell nucleus where it binds to hormone response elements on DNA to initiate expression of target genes. […] The solvents, reagents, and ligands employed in the functional assay are readily available from commercial sources, or can be prepared by one of ordinary skill in the art.
Human embryonic kidney HEK293 cells are transfected with steroid hormone receptor and reporter gene plasmids using a suitable transfection reagent such as Fugene™. […] After 24 hours incubation with test compounds, cells are lysed and luciferase activity is determined using standard techniques.
Data are fitted to a four parameter-fit logistic curve to determine EC50 values. […] IC50 values are determined similarly using antagonist mode assay data. In the antagonist mode, percent inhibitions are determined by comparing test compound activity in the presence of low concentration of agonist (0.08 nM aldosterone for MR, 0.25 nM dexamethasone for GR, 0.66 nM of methyltrienolone for AR, and 0.08 nM of promegestone for PR) to the response produced by the same low concentration of agonist in the absence of test compound.

EC50 (agonist mode): > 10 µM
IC50 (antagonist mode, 0.25 nM dexamethasone): > 10 µM
SMILES: O=c1[nH]c2cc(/C=C3\c4ccccc4COc4cc(F)ccc43)ccc2n1[C@@H]1C[C@@H]2COCCN2C1 [Compound (I), 5-((E)-(3-fluorodibenzo[b,e]oxepin-11(6H)-ylidene)methyl)-1-((7R,8aR)-hexahydro-1H-pyrrolo[2,1-c][1,4]oxazin-7-yl)-1H-benzo[d]imidazol-2(3H)-one]
